Measurements as given in patent EP0103895A2, “Novel hydroxylamine derivatives, production and use thereof” (MEIJI SEIKA KABUSHIKI KAISHA, priority 1982, dated 1984).

Experiments:
[1] = system: Liver fluke; Fasciola hepatica (F. hepatica); test: Test of anthelmintic effect against rat infected experimentally with liver fluke (Test Examples A11, B11, C11, D11); format: in vivo; design: key to Presence or absence of fluke egg in fecal matter On 21st day after the last administration: +: indicates detection of fluke egg; -: indicates no detection; conditions: rats, 50 mg/Kg x 5 orally, one value per rat; for Condition of fluke body: autopsy, liver, "Denatured" = fluke body is alive but a part of fluke body has changed
From the text: Twenty-eight (28) rats were employed in fourteen groups each of two rats, each rat being infected with 5 metacercariae of Liver fluke; Fasciola he^patica (F.. hepatica) and confirmed to have worm eggs on the 75th day after infection according to fecal matter testing.
Judgement of the effect was made by the presence or absence of the worm gees in the fecal matter on the 21st day after the last administration and by examination according to autopsis as to whether the worm bodies were dead or alive in the liver.
The same as that in Test Example All, but eight (8) rats were employed by grouping them into groups each of two rats, each rat being infected with 5 metacercariae of liver fluke and confirmed to have fluke eggs on the 75th day after infection according to fecal matter testing.
The compounds provided for the tests were Compound Nos. Bl, B8 and B19.
The same as that in Test Example All, but six (6) rats were employed by grouping them into groups each of two rats, each rat being infected with 5 metacercariae of Fasciola hepatica and confirmed to have worm eggs on the 75th day after infection according to fecal matter testing.
The compounds provided for the tests were Compound Nos. C2 and C6.
The same as that in Test Example All, but the compounds provided for tests were Compound Nos. D14, D15 and D16.

[2] = system: fowl roundworm (As. galli); test: Anthelmintic test in chickens artificially infected with fowl roundworm, compound added to feed, E.P.G. and worm count up to 21st day (Test Examples A2, B2, C2, D2); format: in vivo, Ascaridia galli; conditions: Ascaridia galli, po, 504 h, chickens, worm count on 21st day, one value per chicken, read-out: Anthelmintic effect; for inhibition in vivo at 10 ppm: 10 ppm added to feed; for inhibition in vivo at 50 ppm: 50 ppm added to feed
Description: Chickens artificially infected with fowl roundworm (As. galli) were employed in groups each of two chickens.
Fecal matter testing was conducted before initiation of the test and on the 7th, 14th and 21st day after initiation of the test. Reduction in worm egg number was examined by calculating E.P.G. (worm eggs per 1 g of fecal matter), and the number of discharged worm bodies and the number of worm bodies remaining in the enteron when the chicken was killed on 21st day were counted to determine the anthelmintic percentage, from which the anthelmintic effect was judged.

[3] = system: fowl roundworm (As. galli); test: Anthelmintic test in chickens infected with fowl roundworm, compound added to feed at 250 ppm and 1,000 ppm, E.P.G. and worm count on 5th day (Test Example E2); format: in vivo, Ascaridia galli; conditions: for E.P.G. after 5 days: worm egg number in 1 g of fecal matter; for anthelmintic effect / inhibition in vivo at 250 ppm / inhibition in vivo at 1000 ppm: 5th day; for inhibition in vivo at 250 ppm / inhibition in vivo at 1000 ppm: Ascaridia galli, feed or water, 120 h, read-out: Anthelmintic effect
Description: Chickens infected with fowl roundworm (As. galli) were employed in groups each of two chickens.
The compound provided for the test was dissolved in a small amount of ethyl alcohol and adsorbed on defatted rice bran and added to chicken feed at levels of 250 ppm and 1,000 ppm. As control, a feed containing no such compound was employed.
Fecal matter testing was conducted before initiation of the test and on the 5th day after initiation of the test. The reduction in worm egg count was examined by calculating the E.P.G. (worm egg number in 1 g of fecal matter). The number of discharged worm bodies and the number of worm bodies remaining in the enteron when the chicken was killed on 5th day were counted to determined the anthelmintic percentage, from which the anthelmintic effect was judged.

[4] = system: fowl roundworm (As. galli); test: Anthelmintic test in chickens infected with fowl roundworm, single oral dose of 40 mg per Kg, worm bodies counted within 24 hours (Test Example E1); format: in vivo, Ascaridia galli; conditions: 40 mg per Kg oral in gelatin capsule; for inhibition in vivo at 40 mg/kg: Ascaridia galli, 24 h, chicken No.1, read-out: Anthelmintic effect after one day
Description: Chickens infected with fowl roundworm (As. galli) were employed in groups each consisting of five chickens. The compound provided for testing was orally administered in a quantity of 40 mg per Kg of body weight to each chicken in a gelatin capsule. The number of worm bodies discharged within 24 hours after administration of the medicine was counted. Then the chicken was killed, and the number of worm bodies remaining in the enteron was counted to determine the anthelmintic percentage, wherefrom the anthelmintic effect was judged.

[5] = 1000 ppm in feed, chicken No. 1
[6] = 1000 ppm in feed, chicken No. 2

With C#CCN(OCC=C)C(=O)CCCCCCCCCCCCCCCCC [Compound A9, N-propargyl-N-stearoyl-N-allylhydroxylamine] the “Condition of fluke body” value [1] was “dead”, the “Presence or absence of fluke egg in fecal matter On 21st day after the last administration” value (shortened to “Presence or absence of fluke egg”) [1] was “-” and the inhibition in vivo at 10 ppm [2] was 100%. The inhibition in vivo at 50 ppm [2] was 100%.
C#CCON(CC#C)C(=O)CC [Compound E2, N,O-dipropargyl-N-propionylhydroxylamine] was tested, and the “E.P.G. after 5 days” value ([3]; 250 ppm in feed, chicken No. 1) was 0, the anthelmintic effect ([3]; 250 ppm in feed, chicken No. 2) was “+++ (100%)” and the “E.P.G. after 5 days” value ([3]; 250 ppm in feed, chicken No. 2) was 0. For the same compound, the “E.P.G. after 5 days” value [3, 5] was 0, the anthelmintic effect [3, 6] was “+++ (100%)” and the “E.P.G. after 5 days” value [3, 6] was 0. For the same compound, the inhibition in vivo at 250 ppm ([3]; 250 ppm in feed, chicken No. 1) was 100%, the inhibition in vivo at 1000 ppm [3, 5] was 100% and the inhibition in vivo at 40 mg/kg [4] was 100%. For the same compound, the “Anthelmintic effect after one day” value ([4]; chicken No.2) was “+++ (100%)”, the “Anthelmintic effect after one day” value ([4]; chicken No.3) was “+++ (100%)” and the “Anthelmintic effect after one day” value ([4]; chicken No.4) was “+++ (100%)”. For the same compound, the “Anthelmintic effect after one day” value ([4]; chicken No.5) was “+++ (100%)”.
C#CCN(OCC=C)C(=O)CC [Compound A5, N-propargyl-N-propionyl-0-allylhydroxylamine] was tested, and the “Condition of fluke body” value [1] was “dead”, the “Presence or absence of fluke egg” value [1] was “-” and the inhibition in vivo at 10 ppm [2] was 80 to 90%. For the same compound, the inhibition in vivo at 50 ppm [2] was 100%.
For C#CCN(OCC=CC)C(C)=O [Compound A4, N-propargyl-N-acetyl-O-crotylhydroxylamine], the “Condition of fluke body” value [1] was “dead”, the “Presence or absence of fluke egg” value [1] was “-” and the inhibition in vivo at 10 ppm [2] was 80 to 90%. The inhibition in vivo at 50 ppm [2] was 100%.
In the case of C#CCN(OCC=C)C(=O)CCCC [Compound A7, N-propargyl-N-valeroyl-O-allylhydroxylamine], the “Condition of fluke body” value [1] is reported as “dead”, the “Presence or absence of fluke egg” value [1] is reported as “-” and the inhibition in vivo at 10 ppm [2] is reported as 80 to 90%. It also gave an inhibition in vivo at 50 ppm [2] of 100%.
With C#CCON(CC#C)C(=O)CCCC [Compound E4, N,O-dipropargyl-N-valerylhydroxylamine] the “E.P.G. after 5 days” value ([3]; 250 ppm in feed, chicken No. 1) was 0, the anthelmintic effect ([3]; 250 ppm in feed, chicken No. 2) was “+++ (100%)” and the “E.P.G. after 5 days” value ([3]; 250 ppm in feed, chicken No. 2) was 0. The “E.P.G. after 5 days” value [3, 5] was 0, the anthelmintic effect [3, 6] was “+++ (100%)” and the “E.P.G. after 5 days” value [3, 6] was 0. The inhibition in vivo at 250 ppm ([3]; 250 ppm in feed, chicken No. 1) was 100%, the inhibition in vivo at 1000 ppm [3, 5] was 100% and the inhibition in vivo at 40 mg/kg [4] was 100%. The “Anthelmintic effect after one day” value ([4]; chicken No.2) was “+++ (100%)”, the “Anthelmintic effect after one day” value ([4]; chicken No.3) was “+++ (100%)” and the “Anthelmintic effect after one day” value ([4]; chicken No.4) was “+++ (100%)”. The “Anthelmintic effect after one day” value ([4]; chicken No.5) was “+++ (100%)”.
In the case of C#CCON(CC#C)C(=O)CCCCCCCCCCCCCCCCC [Compound E11, N,O-dipropargyl-N-stearoyl- hydroxylamine], the “E.P.G. after 5 days” value ([3]; 250 ppm in feed, chicken No. 1) is reported as 0, the anthelmintic effect ([3]; 250 ppm in feed, chicken No. 2) is reported as “+++ (100%)” and the “E.P.G. after 5 days” value ([3]; 250 ppm in feed, chicken No. 2) is reported as 0. The “E.P.G. after 5 days” value [3, 5] was 0, the anthelmintic effect [3, 6] was “+++ (100%)” and the “E.P.G. after 5 days” value [3, 6] was 0. For the same compound, the inhibition in vivo at 250 ppm ([3]; 250 ppm in feed, chicken No. 1) was 100%, the inhibition in vivo at 1000 ppm [3, 5] was 100% and the inhibition in vivo at 40 mg/kg [4] was 100%. For the same compound, the “Anthelmintic effect after one day” value ([4]; chicken No.2) was “+++ (100%)”, the “Anthelmintic effect after one day” value ([4]; chicken No.3) was “+++ (100%)” and the “Anthelmintic effect after one day” value ([4]; chicken No.4) was “+++ (100%)”. The “Anthelmintic effect after one day” value ([4]; chicken No.5) was “+++ (100%)”.
With C#CCON(CC#C)C(=O)c1ccccc1Cl [Compound E8, N,O-dipropargyl-N-O-chlorobenzoylhydroxylamine] the “E.P.G. after 5 days” value ([3]; 250 ppm in feed, chicken No. 1) was 0, the anthelmintic effect ([3]; 250 ppm in feed, chicken No. 2) was “+++ (100%)” and the “E.P.G. after 5 days” value ([3]; 250 ppm in feed, chicken No. 2) was 0. For the same compound, the “E.P.G. after 5 days” value [3, 5] was 0, the anthelmintic effect [3, 6] was “+++ (100%)” and the “E.P.G. after 5 days” value [3, 6] was 0. For the same compound, the inhibition in vivo at 250 ppm ([3]; 250 ppm in feed, chicken No. 1) was 100%, the inhibition in vivo at 1000 ppm [3, 5] was 100% and the inhibition in vivo at 40 mg/kg [4] was 100%. The “Anthelmintic effect after one day” value ([4]; chicken No.2) was “+++ (100%)”, the “Anthelmintic effect after one day” value ([4]; chicken No.3) was “+++ (100%)” and the “Anthelmintic effect after one day” value ([4]; chicken No.4) was “+++ (100%)”. For the same compound, the “Anthelmintic effect after one day” value ([4]; chicken No.5) was “+++ (100%)”.
C#CCON(CC#C)C(=O)CCC [Compound E3, N,O-dipropargyl-N-butylylhydroxylamine] was tested, and the “E.P.G. after 5 days” value ([3]; 250 ppm in feed, chicken No. 1) was 0, the anthelmintic effect ([3]; 250 ppm in feed, chicken No. 2) was “+++ (100%)” and the “E.P.G. after 5 days” value ([3]; 250 ppm in feed, chicken No. 2) was 0. The “E.P.G. after 5 days” value [3, 5] was 0, the anthelmintic effect [3, 6] was “+++ (100%)” and the “E.P.G. after 5 days” value [3, 6] was 0. It also gave an inhibition in vivo at 250 ppm ([3]; 250 ppm in feed, chicken No. 1) of 100%, an inhibition in vivo at 1000 ppm [3, 5] of 100% and an inhibition in vivo at 40 mg/kg [4] of 100%. The “Anthelmintic effect after one day” value ([4]; chicken No.2) was “+++ (100%)”, the “Anthelmintic effect after one day” value ([4]; chicken No.3) was “+++ (100%)” and the “Anthelmintic effect after one day” value ([4]; chicken No.4) was “+++ (100%)”. The “Anthelmintic effect after one day” value ([4]; chicken No.5) was “+++ (100%)”.
With C#CCON(CC#C)C(C)=O [Compound E1, N,O-dipropargyl-N-acetylhydroxylamine] the “E.P.G. after 5 days” value ([3]; 250 ppm in feed, chicken No. 1) was 0, the anthelmintic effect ([3]; 250 ppm in feed, chicken No. 2) was “+++ (100%)” and the “E.P.G. after 5 days” value ([3]; 250 ppm in feed, chicken No. 2) was 0. The “E.P.G. after 5 days” value [3, 5] was 0, the anthelmintic effect [3, 6] was “+++ (100%)” and the “E.P.G. after 5 days” value [3, 6] was 0. The inhibition in vivo at 250 ppm ([3]; 250 ppm in feed, chicken No. 1) was 100%, the inhibition in vivo at 1000 ppm [3, 5] was 100% and the inhibition in vivo at 40 mg/kg [4] was 100%. The “Anthelmintic effect after one day” value ([4]; chicken No.2) was “+++ (100%)”, the “Anthelmintic effect after one day” value ([4]; chicken No.3) was “+++ (100%)” and the “Anthelmintic effect after one day” value ([4]; chicken No.4) was “+++ (100%)”. The “Anthelmintic effect after one day” value ([4]; chicken No.5) was “+++ (100%)”.
C#CCON(CC#C)C(=O)CCCCCCC/C=C\CCCCCCCC [Compound E6, N,O-dipropargyl-N-oleoylhydroxylamine] was tested, and the “E.P.G. after 5 days” value ([3]; 250 ppm in feed, chicken No. 1) was 0, the anthelmintic effect ([3]; 250 ppm in feed, chicken No. 2) was “+++ (100%)” and the “E.P.G. after 5 days” value ([3]; 250 ppm in feed, chicken No. 2) was 0. For the same compound, the “E.P.G. after 5 days” value [3, 5] was 0, the anthelmintic effect [3, 6] was “+++ (100%)” and the “E.P.G. after 5 days” value [3, 6] was 0. It also gave an inhibition in vivo at 250 ppm ([3]; 250 ppm in feed, chicken No. 1) of 100%, an inhibition in vivo at 1000 ppm [3, 5] of 100% and an inhibition in vivo at 40 mg/kg [4] of 100%. For the same compound, the “Anthelmintic effect after one day” value ([4]; chicken No.2) was “+++ (100%)”, the “Anthelmintic effect after one day” value ([4]; chicken No.3) was “+++ (100%)” and the “Anthelmintic effect after one day” value ([4]; chicken No.4) was “+++ (100%)”. The “Anthelmintic effect after one day” value ([4]; chicken No.5) was “+++ (100%)”.
